Patent US7473682B2, “Angiogenic peptides and uses thereof” (Ramot at Tel Aviv University Ltd., priority 2003, dated 2009)

Legend:
[1] = tested on: ears of nude mice and Balb/C mice; test: In vivo angiogenesis in a mouse-ear model; settings: for Number of blood vessels: 5 days after inoculation
Experimental: In Wivo angiogenesis in a mouse-ear model—Ear angiogenesis studies were a modification of an approach described previously (Pettersson, 2000). […] Contralateral ears were injected only with PBS. […] Two days after peptide inoculation, angiogenic effect of peptides could be observed.
Histological sections—Histological sections of the mouse-ears injected with the angiogenic peptides were performed by fixing tissues in 4% buffered formalin. Sections were embedded in paraffin blocks sectioned in 4 μm thick layers and stained with hematoxolin-eosin.

mouse ischemic hind limb [2] = test: Mouse ischemic hind limb model, physiological observations (ladder climbing); type: in vivo; set-up: key: 1 = walk and climb ... 4 = walk with difficulty, cannot climb; settings: mean score of 10 mice, 10 μg
Experimental: (§1) Mouse ischemic hind limb model—Ischemia was created in the mouse left hind limb by ligation of the femoral artery. The right hind limb served as control. A day after the operation each of the peptides was injected into one site close to the ligation and one site distal to the ligation. Each mouse was treated with each of the peptides in a total amount of 10 μg.
Physiological observations—Ischemic mice were evaluated for their ability to climb a ladder on day 1, 4, 7, and 10-post operation. The scoring system was as follows: 1—walk and climb; 2—walk and climb with some difficulty, 3—walk and cannot climb the ladder; 4—walk with difficulties and cannot climb the ladder.

mouse ischemic hind limb [3] = test: Mouse ischemic hind limb model, blood perfusion (Laser Doppler Imager); type: in vivo; settings: 14 and 19 days following peptide injection, 10 μg
Experimental: as §1
Blood perfusion in ischemic mice—The percent of blood perfusion was measured using a Laser Doppler Imager (PeriMed, Sweden) at 14 and 19 days after peptides injections. The average percent perfusion of each limb was computed and expressed as the ischemic (left)/control (right) blood perfusion ratio.

Substance | Number of blood vessels ([1]; 3 ng/ear) | Peptide/PBS = ratio between the No. of blood vessels in the peptide-injected ear and in the PBS-injected ear ([1]; mouse ears, contralateral ear PBS) | Physiological score (ability to climb a ladder) Day 1 (mouse ischemic hind limb [2]; 1 = walk and climb ... 4 = walk with difficulties and cannot climb, day 1 post operation) | Physiological score (ability to climb a ladder) Day 4 (mouse ischemic hind limb [2]; scale 1-4, day 4 post operation) | Physiological score (ability to climb a ladder) Day 7 (mouse ischemic hind limb [2]; scale 1-4, day 7 post operation) | Physiological score (ability to climb a ladder) Day 10 (mouse ischemic hind limb [2]; scale 1-4, day 10 post operation) | The blood perfusion ratio (in percentages) of the ischemic vs. control limbs, Mean (mouse ischemic hind limb [3]) | Number of blood vessels ([1]; 10 ng/ear) | Number of blood vessels in the ears of injected mice (photographs) ([1]; VEGF, 100 ng/mouse ear (FIG. 19a))
FGF: positive control, the angiogenic molecule FGF [reference compound] | 11 | 2.08 | 2.57 | 2 | 1 | 1 | 93.438 percentages |  | 
VEGF [reference compound] |  |  |  |  |  |  |  | 17 | increased number of blood vessels
